According to ChEMBL document CHEMBL5512634, “Sulfone-based human liver pyruvate kinase inhibitors - Design, synthesis and in vitro bioactivity” (Eur J Med Chem, 2024):
pIC50: −log10 of the molar value. Each block holds one molecule with its values, some of them ahead of it. Activity calls are given as the source filed them. The calls are words filed in the database; no cut-off is given here.

Legend:
[1] = system: HepG2; experiment: Cytotoxicity against PKM2 knock out human HepG2 cells at 1 to 10 uM measured for 24 to 72 hrs; assay type: toxicity, cell-based; conditions: hepg2, 10 µM, dose lower 1 µM, time lower 24 hrs, dose upper 10 µM, time upper 72 hrs
[2] = target: T1, Pyruvate kinase PKLR (Homo sapiens, UniProt P30613); experiment: Inhibition of full length N-terminal His-tagged human PKL (2 to 543 residues) expressed in Escherichia coli at 10 uM by kinase Glo luminescence based plate reader assay relative to control
Target sequence in this assay (P30613 whole entry, looked up, the tested form may be a part): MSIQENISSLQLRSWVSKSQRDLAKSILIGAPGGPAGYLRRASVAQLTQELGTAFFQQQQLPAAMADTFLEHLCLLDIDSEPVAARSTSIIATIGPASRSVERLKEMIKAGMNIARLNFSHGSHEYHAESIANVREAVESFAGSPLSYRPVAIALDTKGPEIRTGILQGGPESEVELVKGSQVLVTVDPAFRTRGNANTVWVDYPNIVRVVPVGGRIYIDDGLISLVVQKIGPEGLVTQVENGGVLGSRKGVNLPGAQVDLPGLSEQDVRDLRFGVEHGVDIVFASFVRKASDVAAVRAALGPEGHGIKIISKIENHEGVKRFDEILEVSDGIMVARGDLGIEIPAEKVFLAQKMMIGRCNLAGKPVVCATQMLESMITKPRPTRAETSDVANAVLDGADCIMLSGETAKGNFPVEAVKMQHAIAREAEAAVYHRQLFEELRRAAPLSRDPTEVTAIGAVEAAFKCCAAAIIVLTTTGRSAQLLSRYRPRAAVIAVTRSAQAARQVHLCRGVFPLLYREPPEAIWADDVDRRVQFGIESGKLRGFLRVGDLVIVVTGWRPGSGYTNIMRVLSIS

[3] = target: T1, Pyruvate kinase PKLR; experiment: Inhibition of full length N-terminal His-tagged human PKL (2 to 543 residues) expressed in Escherichia coli by kinase Glo luminescence based plate reader assay
Target sequence in this assay (P30613 whole entry, the tested form may be a part): as the sequence (P30613 whole entry, looked up, the tested form may be a part) above

[4] = target: T1, Pyruvate kinase PKLR; experiment: Inhibition of PKR (unknown origin)
Target sequence in this assay (P30613 whole entry, looked up, the tested form may be a part): as above

Structure (SMILES): O=S1(=O)Oc2c(ccc(O)c2O)-c2cc(O)c(O)cc21
- Activity [1]: Non-Toxic

- inhibition [2]: Active
Structure (SMILES): O=S1(=O)Oc2c(ccc(O)c2O)-c2cc(O)ccc21

- pIC50 [3]: 7.15
- pIC50 [4]: 6.74
Structure (SMILES): O=S1(=O)Oc2cc(O)c(O)c(O)c2-c2cc(O)c(O)cc21
